Results as given in ChEMBL document CHEMBL3046454, “Structureactivity relationship study of thiosemicarbazones on an African trypanosome: Trypanosoma brucei brucei” (Med Chem Res, 2013).

Columns and labels:
[1] = system: Trypanosoma brucei brucei; experiment: Trypanocidal activity against Trypanosoma brucei brucei 427 bloodstream form assessed as inhibition of parasite proliferation after 72 hr by Lilit Alamar Blue method; assay type: functional, organism-based
[2] = Toxicity against Artemia salina (brine shrimp) larvae assessed as mortality after 24 hr; assay type: organism-based; conditions: in vivo
[3] = Selectivity index, ratio of LC50 for Artemia salina larvae to IC50 for Trypanosoma brucei brucei 427 bloodstream form
[4] = Trypanosoma brucei, 427, 72 h, read-out: IC50

Row | SMILES | IC50 [1, 4] [µM] | further results
1 | CN(C)c1ccc(/C=C/C=N\NC(N)=S)cc1 | 17.7 | –
2 | C/C(=N/NC(=S)Nc1ccccc1)c1ccc(Cl)cc1 | 3.97 | LC50 at 24 h [2]: 438 µM; Ratio LC50/IC50 [3]: 110
3 | Cc1ccccc1/C=N\NC(N)=S | 222 | –
4 | C=C(C)C1CC=C(C)/C(=N/NC(N)=S)C1 (stereo not drawn) [CARVONE-THIOSEMICARBAZONE] | 39.7 | –
5 | NC(=S)NN=C(c1ccccc1)c1ccccc1 [BENZOPHENONE-THIOSEMICARBAZONE] | 68.3 | –
6 | NC(=S)N/N=C\c1ccccc1O | 170 | –
7 | NC(=S)N/N=C\c1cc(Cl)ccc1O | 45.6 | –
8 | Cc1ccc(/C=N\NC(N)=S)cc1 | 124 | –
9 | NC(=S)N/N=C\c1ccccc1Cl | 220 | –
10 | COc1cc(/C(C)=N\NC(N)=S)cc(OC)c1OC | – | IC50 [1]: Not Active
11 | C/C(=N/NC(N)=S)c1ccc2ccccc2c1 [ACETONAPHTHONE-THIOSEMICARBAZONE] | 9.62 | LC50 at 24 h [2]: 481 µM; Ratio LC50/IC50 [3]: 50
12 | NC(=S)N/N=C\c1cccc(Br)c1 | 136 | –
13 | NC(=S)N/N=C\c1ccccc1 [BENZALDEHYDE-THIOSEMICARBAZONE] | 444 | –
14 | C/C(=N/NC(N)=S)c1cccc(Br)c1 | 70.4 | –
15 | CC/C(=N/NC(N)=S)c1ccc(OC)cc1 | 132 | –
16 | C/C(=N/NC(N)=S)c1ccccc1Cl | 199 | –
17 | NC(S)=NN=C(Cc1ccccc1)Cc1ccccc1 | 147 | –
18 | C/C(=N/NC(=S)Nc1ccccc1)c1ccc(Br)cc1 | 5.19 | LC50 at 24 h [2]: 134 µM; Ratio LC50/IC50 [3]: 25.9
19 | COc1ccc(/C(C)=N\NC(N)=S)cc1OC | – | IC50 [1]: Not Active
20 | C/C(=N/N=C(\N)S)C12CC3CC(CC(C3)C1)C2 | 8.38 | LC50 at 24 h [2]: 119 µM; Ratio LC50/IC50 [3]: 14.2
21 | NC(=S)N/N=C\C=C\c1ccccc1 | 76.3 | –
22 | NC(=S)N/N=C\c1ccc(Cl)cc1 | 82.6 | –
23 | NC(=S)N/N=C\c1cccc(Cl)c1 | 164 | –
24 | C/C(=N/N=C(\N)S)c1ccc(Cl)cc1 [P-CHLOROPHENYL(METHYL)THIOSEMICARBAZONE] | 11.1 | –
25 | COc1ccc(/C(C)=N\NC(N)=S)cc1 | 91.1 | –
26 | NC(=S)N/N=C\CCc1ccccc1 | 260 | –
27 | C/C(=N/NC(=S)Nc1ccccc1)c1ccc2ccccc2c1 | – | IC50 [1]: ND(Insoluble)
28 | COc1ccc(/C=N\NC(N)=S)cc1 | 259 | –
29 | C/C(=N/NC(N)=S)c1ccccc1 [ACETOPHENONE-THIOSEMICARBAZONE] | 212 | –
30 | C/C(=N/NC(N)=S)c1ccc(Br)cc1 | 26.9 | –
